Source: ChEMBL document CHEMBL1201862, “PubChem BioAssay data set” (2004)
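In this assay, cells in 96-well plates receive the compound at five concentrations for 48 hours. Endpoints are linearly interpolated between the surrounding concentrations. The concentration for 50% growth inhibition is given as GI50.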 Active and inactive are the calls of the source. Rule as the data show it: active = GI50 up to about 1.1 µM and inactive = higher.

Assays:
Assay in all cases: growth of human tumour cells (NCI), 48 h
OVCAR-8 = test system: OVCAR-8
NCI-H226 = test system: NCI-H226
NCI-H23 = test system: NCI-H23
TK-10 = test system: TK-10
UACC-257 = test system: UACC-257
KM12 = test system: KM12
OVCAR-3 = test system: OVCAR-3
SK-MEL-28 = test system: SK-MEL-28
HCT-116 = test system: HCT-116
RXF 393 = test system: RXF 393
BT-549 = test system: BT-549
SK-OV-3 = test system: SK-OV-3
786-0 = test system: 786-0
HOP-92 = test system: HOP-92
SNB-75 = test system: SNB-75
OVCAR-4 = test system: OVCAR-4
SNB-19 = test system: SNB-19
SN12C = test system: SN12C
HL-60 = test system: HL-60
SR = test system: SR
HCT-15 = test system: HCT-15
MDA-N = test system: MDA-N
MOLT-4 = test system: MOLT-4
UO-31 = test system: UO-31
NCI-H522 = test system: NCI-H522
SK-MEL-2 = test system: SK-MEL-2
SF-295 = test system: SF-295
NCI-H460 = test system: NCI-H460
HOP-62 = test system: HOP-62
CAKI-1 = test system: CAKI-1
MDA-MB-435 = test system: MDA-MB-435
CCRF-CEM = test system: CCRF-CEM
EKVX = test system: EKVX
NCI/ADR-RES = test system: NCI/ADR-RES
SF-268 = test system: SF-268
OVCAR-5 = test system: OVCAR-5
MCF7 = test system: MCF7
SW-620 = test system: SW-620
DU-145 = test system: DU-145
SK-MEL-5 = test system: SK-MEL-5
U-251 = test system: U-251
A549 = test system: A549
UACC-62 = test system: UACC-62
MDA-MB-231 = test system: MDA-MB-231
COLO 205 = test system: COLO 205
IGROV-1 = test system: IGROV-1
LOX IMVI = test system: LOX IMVI
M14 = test system: M14
PC-3 = test system: PC-3
ACHN = test system: ACHN
HCC 2998 = test system: HCC 2998
Hs-578T = test system: Hs-578T
SF-539 = test system: SF-539
HT-29 = test system: HT-29
Malme-3M = test system: Malme-3M
A498 = test system: A498
K562 = test system: K562
RPMI-8226 = test system: RPMI-8226

## COc1ccc(NC(=O)/C(CC2=Nc3ccc([N+](=O)[O-])cc3NC2O)=N\NC(=O)C[N+](C)(C)C)c(OC)c1 (centres undefined)
OVCAR-8
  GI50: 30.1 µM (inactive)
NCI-H226
  GI50: > 100 µM (inactive)
NCI-H23
  GI50: 84.3 µM (inactive)
TK-10
  GI50: > 100 µM (inactive)
UACC-257
  GI50: > 100 µM (inactive)
KM12
  GI50: 89.7 µM (inactive)
OVCAR-3
  GI50: > 100 µM (inactive)
SK-MEL-28
  GI50: 97.9 µM (inactive)
HCT-116
  GI50: 30.4 µM (inactive)
RXF 393
  GI50: 21.6 µM (inactive)
BT-549
  GI50: > 100 µM (inactive)
SK-OV-3
  GI50: 89.9 µM (inactive)
786-0
  GI50: 30.1 µM (inactive)
HOP-92
  GI50: 72.3 µM (inactive)
SNB-75
  GI50: > 100 µM (inactive)
OVCAR-4
  GI50: 80 µM (inactive)
SNB-19
  GI50: > 100 µM (inactive)
SN12C
  GI50: 61 µM (inactive)
HL-60
  GI50: > 100 µM (inactive)
SR
  GI50: 18.4 µM (inactive)
HCT-15
  GI50: 45.9 µM
MDA-N
  GI50: > 100 µM (inactive)
MOLT-4
  GI50: > 100 µM (inactive)
UO-31
  GI50: 34.3 µM (inactive)
NCI-H522
  GI50: 18 µM (inactive)
SK-MEL-2
  GI50: > 100 µM (inactive)
SF-295
  GI50: > 100 µM (inactive)
NCI-H460
  GI50: 40.5 µM (inactive)
HOP-62
  GI50: 22.2 µM (inactive)
CAKI-1
  GI50: > 100 µM (inactive)
MDA-MB-435
  GI50: > 100 µM (inactive)
CCRF-CEM
  GI50: 40.3 µM (inactive)
EKVX
  GI50: 54.7 µM (inactive)
NCI/ADR-RES
  GI50: 40.6 µM (inactive)
SF-268
  GI50: > 100 µM (inactive)
OVCAR-5
  GI50: > 100 µM (inactive)
MCF7
  GI50: > 100 µM (inactive)
SW-620
  GI50: 94.8 µM (inactive)
DU-145
  GI50: 47.3 µM (inactive)
SK-MEL-5
  GI50: 22.2 µM (inactive)
U-251
  GI50: 40.7 µM (inactive)
A549
  GI50: 40.5 µM (inactive)
UACC-62
  GI50: > 100 µM (inactive)
MDA-MB-231
  GI50: 12.9 µM (inactive)
COLO 205
  GI50: 43 µM (inactive)
IGROV-1
  GI50: 80.7 µM (inactive)
LOX IMVI
  GI50: 62.1 µM (inactive)
M14
  GI50: 56.1 µM (inactive)
PC-3
  GI50: > 100 µM (inactive)
ACHN
  GI50: 67.5 µM (inactive)
HCC 2998
  GI50: > 100 µM (inactive)
Hs-578T
  GI50: > 100 µM (inactive)
SF-539
  GI50: 26.5 µM (inactive)
HT-29
  GI50: > 100 µM (inactive)

## CC(C)(C)OC(=O)CN1C(=O)CC1CC(=O)c1ccccc1 (centres undefined)
OVCAR-8
  GI50: 17.3 µM (inactive)
NCI-H226
  GI50: 25.1 µM (inactive)
NCI-H23
  GI50: 18.5 µM (inactive)
TK-10
  GI50: 30.2 µM (inactive)
UACC-257
  GI50: 18.2 µM (inactive)
KM12
  GI50: 20 µM (inactive)
OVCAR-3
  GI50: 18.4 µM (inactive)
SK-MEL-28
  GI50: 19.5 µM (inactive)
HCT-116
  GI50: 24.8 µM (inactive)
RXF 393
  GI50: 18.5 µM (inactive)
BT-549
  GI50: 18.2 µM (inactive)
786-0
  GI50: 17.5 µM (inactive)
HOP-92
  GI50: 37.4 µM (inactive)
OVCAR-4
  GI50: 30.5 µM (inactive)
SNB-19
  GI50: 19.8 µM (inactive)
SN12C
  GI50: 23.2 µM (inactive)
HL-60
  GI50: 20 µM (inactive)
Malme-3M
  GI50: 17.3 µM (inactive)
SR
  GI50: 2.89 µM (inactive)
HCT-15
  GI50: 18.2 µM
MDA-N
  GI50: 20.3 µM (inactive)
MOLT-4
  GI50: 4.39 µM (inactive)
UO-31
  GI50: 17.2 µM (inactive)
NCI-H522
  GI50: 15.5 µM (inactive)
SK-MEL-2
  GI50: 16.8 µM (inactive)
SF-295
  GI50: 26.9 µM (inactive)
NCI-H460
  GI50: 26.7 µM (inactive)
HOP-62
  GI50: 17 µM (inactive)
A498
  GI50: 27.4 µM (inactive)
CAKI-1
  GI50: 22.4 µM (inactive)
MDA-MB-435
  GI50: 18.9 µM (inactive)
EKVX
  GI50: 17.2 µM (inactive)
NCI/ADR-RES
  GI50: 35.1 µM (inactive)
SF-268
  GI50: 17.9 µM (inactive)
OVCAR-5
  GI50: 17.5 µM (inactive)
MCF7
  GI50: 12.4 µM (inactive)
SW-620
  GI50: 3.58 µM (inactive)
DU-145
  GI50: 17.9 µM (inactive)
SK-MEL-5
  GI50: 18.2 µM (inactive)
K562
  GI50: 4.14 µM (inactive)
U-251
  GI50: 16 µM (inactive)
A549
  GI50: > 100 µM (inactive)
UACC-62
  GI50: 19.3 µM (inactive)
MDA-MB-231
  GI50: 17.2 µM (inactive)
COLO 205
  GI50: 26.6 µM (inactive)
IGROV-1
  GI50: 18.3 µM (inactive)
LOX IMVI
  GI50: 16.9 µM (inactive)
M14
  GI50: 16.3 µM (inactive)
PC-3
  GI50: 17.2 µM (inactive)
ACHN
  GI50: 21.2 µM (inactive)
HCC 2998
  GI50: 23.5 µM (inactive)
Hs-578T
  GI50: 26.1 µM (inactive)
SF-539
  GI50: 19.4 µM (inactive)
HT-29
  GI50: 17.2 µM (inactive)
RPMI-8226
  GI50: 3.05 µM (inactive)
